Measurements reported in ChEMBL document CHEMBL1158029, “Bisabolanes from the red alga Laurencia scoparia” (J Nat Prod, 2006).
Activity calls are given as the source filed them. The calls are words filed in the database; no cut-off is given here.

Tested on: Nippostrongylus brasiliensis
Assay: Antihelminthic activity against L4 parasitant stage of Nippostrongylus brasiliensis
Type: functional, organism-based

EC50 [µM]	SMILES	Activity
–	C[C@@H]1CC[C@]23[C@H]1CC[C@@]2(C)C[C@H](C)[C@]3(C)O	inactive
110	C=C(C[C@H](O)C=C(C)C)[C@@]1(O)CC[C@](C)(Br)[C@@H](Cl)C1	–
–	C=C(C)C(O)CCC(=C)[C@]1(O)CC[C@](C)(Br)[C@@H](Cl)C1 (relative stereo)	inactive
–	C=C(C)C(O)CCC(=C)[C@@]1(O)CC[C@](C)(Br)[C@@H](Cl)C1 (relative stereo)	inactive
–	C[C@@H]1CC[C@]23[C@H]1CC[C@@]2(C)C[C@@](C)(O)[C@H]3C	inactive
